The target in data set [1] is T1, human inducible NO-synthase (Homo sapiens, UniProt P35228). The data set can be described thus: Measurement of inducible NO-synthase activity. Type of data set: biochemical. The conditions noted are these: crude cytosolic fraction containing human iNOS; 0.1 μM arginine; [3H]arginine; read-out: Inhibition of iNOS activity -logIC50 (converted). Here is the method:
(§1) The assay is performed in 96-well microtiter F-plates (Greiner, Frickenhausen, FRG) in a total volume of 100 μl in the presence of 100 nM calmodulin, 226 μM CaCl2, 477 μM MgCl2, 5 μM flavin-adenine-dinucleotide (FAD), 5 μM flavin mononucleotide (FMN), 0.1 mM nicotinamide adenine dinucleotide phosphate (NADPH), 7 mM glutathione, 10 μM tetrahydrobiopterine (BH4) and 100 mM 4-(2-hydroxyethyl)piperazine-1-ethanesulfonic acid (HEPES) pH 7.2. Arginine concentrations are 0.1 μM for enzyme inhibition experiments. 150000 dpm of [^3H]arginine are added to the assay mixture. Enzyme reaction is started by the addition of 4 μg of a crude cytosolic fraction containing human inducible NO-synthase and the reaction mixture is incubated for 45 to 60 min at 37° C. Enzyme reaction is stopped by adding 10 μl of 2M 2-morpholinoethane sulfonic acid buffer (MES-buffer) pH 5.0. 50 μl of the incubation mixture are transferred into a MADP N65 filtration microtiter plate (Millipore, Eschborn, FRG) containing already 50 μl of AG-50W-X8 cation exchange resin (Biorad, München, FRG). The resin in the Na loaded form is pre-equilibrated in water and 70 μl (corresponding to 50 μl dry beads) are pipetted under heavy stirring with a 8 channel pipette into the filtration plate. After pipetting 50 μl of the enzyme reaction mixture onto the filtration plates, the plates are placed on a filtration manifold (Porvair, Shepperton, UK) and the flow through is collected in Pico scintillation plates (Packard, Meriden, Conn.). The resin in the filtration plates is washed with 75 μl of water (1×50 μl and 1×25 μl) which is also collected in the same plate as the sample. The total flow through of 125 μl is mixed with 175 μl of Microscint-40 scintillation cocktail (Packard) and the scintillation plate is sealed with TopSeal P-foil (Packard). Scintillation plates are counted in a szintillation counter.
(§2) For the measurement of inducible NO-synthase-inhibiting potencies of compounds according to the invention increasing concentrations of inhibitors are included into the incubation mixture. IC50 values are calculated from the percent inhibition at given concentrations by nonlinear least square fitting.

The target of data set [2] is T1, human inducible NO-synthase. The data set is described as follows: Measurement of inducible NO-synthase activity in the presence of 20% human plasma serum. In kind it is biochemical. As to conditions: 20% (v/v) human plasma serum added into the reaction volume; read-out: Inhibition of iNOS activity -logIC50 20% human serum (converted). Here is the method: as §1, §2
The assay determining the human plasma serum binding of compounds according to the invention was performed essentially as the enzymatic activity assay described above. Human plasma serum 20% (v/v) was added into the reaction volume. Human serum was obtained after coagulation and sedimentation of drawn donor blood. After centrifugation (two times 3500 rpm, 30 min) the plasma serum was dialyzed in phosphate buffered saline (PBS) for 18 h using dialysis cassettes with a molecular weight cuttoff of 3500 Dalton (Slide-a-Lyzer 3.5 K, Pierce, Rockford Ill.) in order to reduce the L-arginine concentration that is interfering with the radioactive activity assay. The buffer was refreshed 5 times during dialysis. The serum was aliquoted and frozen at −20° C. until use. Inhibitory potency of the compounds according to the invention was determined as described above.

The text below walks through data of patent US7790710B2, “Imidazopyridine derivatives useful as iNOS inhibitors” (NYCOMED GmbH, priority 2005, dated 2010).

A word on the melting point: it is the temperature, or range, at which the solid turns liquid.

`CCN1CCN(S(=O)(=O)c2ccc(-c3cnc4[nH]c(CCC5CCCCC(N)=N5)nc4c3)cc2)CC1` (stereo not shown) [compound 7, 7-(2-{6-[4-(4-Ethyl-piperazine-1-sulfonyl)-phenyl]-3H-imidazo[4,5-b]pyridin-2-yl}-ethyl)-4,5,6,7-tetrahydro-3H-azepin-2-ylamine] displayed a melting point of 199 °C. Besides, the IC50 in data set [1] is 468 nM.
The compound `Cc1ccc(NS(=O)(=O)c2ccc(-c3cnc4[nH]c(CCC5CCCCC(N)=N5)nc4c3)cc2)c(F)c1` (stereo not shown) [compound 8, 4-{2-[2-(7-Amino-3,4,5,6-tetrahydro-2H-azepin-2-yl)-ethyl]-3H-imidazo[4,5-b]pyridin-6-yl}-N-(2-fluoro-4-methyl-phenyl)-benzenesulfonamide] gave a melting point of 265 °C. Also, in data set [1], the IC50 is 589 nM.
As to `Cc1ccccc1NS(=O)(=O)c1ccc(-c2cnc3[nH]c(CCC4CCCCC(N)=N4)nc3c2)cc1` (stereo not shown) [compound 9, 4-{2-[2-(7-Amino-3,4,5,6-tetrahydro-2H-azepin-2-yl)-ethyl]-3H-imidazo[4,5-b]pyridin-6-yl}-N-o-tolyl-benzenesulfonamide], the melting point is 215 °C. Besides, the IC50 in data set [1] is 398 nM.
The compound `COc1ccc(-c2cnc3[nH]c(CCC4CCCCC(N)=N4)nc3c2)cc1` (stereo not shown) [compound 3, 7-{2-[6-(4-Methoxy-phenyl)-3H-imidazo[4,5-b]pyridin-2-yl]-ethyl}-4,5,6,7-tetrahydro-3H-azepin-2-ylamine] returned a melting point of 306 °C. For the same compound, the IC50 in data set [1] is 251 nM. Further, the IC50 in data set [2] is 1580 nM.
Regarding `CN(C)S(=O)(=O)c1ccc(-c2cnc3[nH]c(CCC4CCCCC(N)=N4)nc3c2)cc1` (stereo not shown) [compound 5, 4-{2-[2-(7-Amino-3,4,5,6-tetrahydro-2H-azepin-2-yl)-ethyl]-3H-imidazo[4,5-b]pyridin-6yl}-N,N-dimethyl-benzenesulfonamide], the melting point was 195 °C (dec.). The IC50 in data set [1] was 229 nM. The IC50 in data set [2] was 933 nM.
Consider `N#Cc1ccc(-c2cnc3[nH]c(CCC4CCCCC(N)=N4)nc3c2)cc1` (stereo not shown) [compound 2, 7-[2-(6-{4-Cyano-phen-1-yl}-3H-imidazo[4,5-b]pyridin-2-yl)-ethyl]-4,5,6,7-tetrahydro-3H-azepin-2-ylamine], for which the melting point is 175 °C (dec.). Further, in data set [1], the IC50 is 224 nM. In addition, the IC50 in data set [2] was 398 nM.
For `NC1=NC(CCc2nc3cc(-c4ccccc4)cnc3[nH]2)CCCC1` (stereo not shown) [compound 1, 7-[2-(6-Phenyl-3H-imidazo[4,5-b]pyridin-2-yl)-ethyl]-4,5,6,7-tetrahydro-3H-azepin-2-ylamine], the melting point is 117 °C (dec.). In addition, in data set [1], the IC50 is 170 nM. The IC50 in data set [2] was 1000 nM.
As for `CN(CC1CCCO1)S(=O)(=O)c1ccc(-c2cnc3[nH]c(CCC4CCCCC(N)=N4)nc3c2)cc1` (stereo not shown) [compound 10, 4-{2-[2-(7-Amino-3,4,5,6-tetrahydro-2H-azepin-2-yl)-ethyl]-3H-imidazo[4,5-b]pyridin-6-yl}-N-methyl-N-(tetrahydro-furan-2-ylmethyl)-benzenesulfonamide], the melting point was determined as 260 °C. Moreover, the IC50 in data set [1] was 617 nM.
Consider `NC1=NC(CCc2nc3cc(-c4cc5ccccc5o4)cnc3[nH]2)CCCC1` (stereo not shown) [compound 4, 7-[2-(6-Benzofuran-2-yl-3H-imidazo[4,5-b]pyridin-2-yl)-ethyl]-4,5,6,7-tetrahydro-3H-azepin-2-ylamine], for which the IC50 in data set [1] is 229 nM; in data set [2], 955 nM.
On to `NC1=NC(CCc2nc3cc(-c4ccc(S(=O)(=O)N5CCC5)cc4)cnc3[nH]2)CCCC1` (stereo not shown) [compound 6, 7-(2-{6-[4-(Azetidine-1-sulfonyl)-phenyl]-3H-imidazo[4,5-b]pyridin-2-yl}-ethyl)-4,5,6,7-tetrahydro-3H-azepin-2-ylamine], for which the melting point is 154 °C (dec.). Moreover, the IC50 in data set [1] is 302 nM. Moreover, in data set [2], the IC50 was 603 nM.
